Values joined by “and” are separate entries in the source; they are usually repeats but may differ in a detail not shown here. Equal values may be shown once.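 Following 48 hours of exposure in 96-well plates, responses at five concentrations were used to interpolate endpoints linearly. At the GI50, growth is halved. TGI is the concentration that stops growth completely.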
How the values were obtained:
Assay in all cases: inhibition of tumour cell growth, NCI panel, 48 h
[1] = tested on: UACC-257 melanoma
[2] = tested on: RXF 393 renal
[3] = tested on: HOP-62 NSCLC
[4] = tested on: KM12 colon
[5] = tested on: MCF7 breast
[6] = tested on: RPMI-8226 leukemia
[7] = tested on: MALME-3M melanoma
[8] = tested on: K-562 leukemia
[9] = tested on: CCRF-CEM leukemia
[10] = tested on: OVCAR-4 ovarian

Structure (SMILES) | GI50 [1] | TGI [1] | GI50 [2] | TGI [2] | GI50 [3] | TGI [3] | GI50 [4] | TGI [4] | GI50 [5] | TGI [5] | GI50 [6] | TGI [6] | GI50 [7] | TGI [7] | GI50 [8] | TGI [8] | GI50 [9] | TGI [9] | GI50 [10] | TGI [10]
COc1ccccc1-c1ccc2c(N)c(C(=O)c3ccc4c(c3)OCO4)sc2n1 | 6.1 µM | 22.7 µM | 3.01 µM | 11.2 µM | 3.52 µM | 14.7 µM | 4.46 µM | 23.3 µM | 4.82 µM | 98.6 µM | 6.05 µM | 59.4 µM | 4.9 µM | 16 µM | 3.74 µM | > 100 µM | 5.27 µM | > 100 µM |  | 
CC[C@H](C)C(=O)O[C@H]1CCC=C2C=C[C@H](C)[C@H](CC[C@@H]3C[C@@H](O)CC(=O)O3)[C@H]21 | 73.3 µM | > 100 µM | 3.32 µM | 16.6 µM | 12.4 µM | > 100 µM |  | > 100 µM | > 42.5 µM | > 100 µM | 13.1 µM | > 75.9 µM |  | > 100 µM | 22 µM | > 100 µM | 34.1 µM | > 100 µM | 19.8 µM | > 100 µM
O=C(Nc1cccc(-n2ccc3c(NC(=O)c4ccccc4)nccc32)c1)c1ccc(Cl)c(Cl)c1 | 1.2 µM | 2.98 µM | 0.106 µM | 0.639 µM | 0.24 µM | 1.87 µM | 0.0554 µM | 0.942 µM | 0.04 µM | 1.43 µM | 0.263 µM | 1.16 µM | 0.242 µM | 2.27 µM | 0.0551 µM |  |  |  | 0.611 µM | 2 µM
Fc1ccc(-c2c(-c3ccncc3)[nH]c3cccnc23)cc1 | > 25 µM | > 25 µM | > 20.4 µM | > 25 µM | > 25 µM | > 25 µM | > 25 µM | > 25 µM | 13.8 µM | > 25 µM | > 25 µM | > 25 µM | > 21.9 µM | > 25 µM | > 23.1 µM | > 25 µM | > 25 µM | > 25 µM | > 25 µM | > 25 µM
CCCCCCCCCCCCCC(=O)NO |  | 77.3 µM |  | 19 µM |  | 34.6 µM |  | 47.2 µM |  | > 100 µM |  | > 100 µM |  | 83.8 µM |  | 34.8 µM |  | 6.46 µM |  | 39.3 µM
N#Cc1ccc(C(=O)c2cnn(-c3ccc(F)cc3)c2N)cc1 | > 25 µM | > 25 µM | > 25 µM | > 25 µM | > 25 µM | > 25 µM | > 25 µM | > 25 µM | > 25 µM | > 25 µM | > 25 µM | > 25 µM | > 25 µM | > 25 µM | > 25 µM | > 25 µM | > 25 µM | > 25 µM | > 25 µM | > 25 µM
CCc1c2c(nc3ccc(OC(=O)OCc4ccc(B5OC(C)(C)C(C)(C)O5)cc4)cc13)-c1cc3c(c(=O)n1C2)COC(=O)[C@]3(O)CC | 0.116 µM | 3.22 µM | 0.0136 µM | 0.134 µM | < 0.01 µM | 3.27 µM | 0.073 µM | 16.1 µM | < 0.01 µM | > 100 µM | 0.224 µM |  | 0.0279 µM | 0.637 µM | 0.0368 µM | > 100 µM | < 0.01 µM | > 100 µM | 0.21 µM | > 30.8 µM
CN1CCN(C(=O)[C@@]2(C)CC[C@]3(C)CC[C@]4(C)C(=CC[C@@H]5[C@@]6(C)CC[C@H](OC(=O)c7cccnc7)C(C)(C)[C@@H]6CC[C@]54C)[C@@H]3C2)CC1 | 1.83 µM | 3.53 µM | 1.66 µM | 3.33 µM |  |  | 1.9 µM | 3.64 µM | 1.49 µM | 3.17 µM | 1.87 µM | 5.81 µM | 1.78 µM | 3.54 µM | 2.15 µM | 6.36 µM | 2.35 µM | 6.45 µM | 1.78 µM | 3.59 µM
COc1ccc(C2CC(c3ccc4ccccc4c3)=NN2c2nc(O)c(C3=c4cc(Cl)ccc4=NC3=O)s2)cc1 (stereo unspecified) |  |  | 0.0186 µM and < 0.005 µM | 0.0389 µM and < 0.005 µM | 0.025 µM and < 0.005 µM |  | 0.0236 µM and < 0.005 µM |  | 0.0292 µM and < 0.005 µM |  | 0.0641 µM |  | 0.0182 µM and < 0.005 µM | 0.0363 µM and < 0.005 µM | 0.0371 µM and < 0.005 µM | 1.65 µM | 0.0362 µM and < 0.005 µM | 0.533 µM | 0.0215 µM | 0.0487 µM
CCOC1Oc2ccccc2C(=O)/C1=C\Nc1ccc(C(=O)O)c(O)c1 (stereo unspecified) | 19.4 µM | 44.6 µM | 16.9 µM | 41.9 µM | 32.4 µM | > 100 µM | 26.3 µM | 65 µM | 29.9 µM | > 100 µM | 20 µM | > 100 µM |  |  | 36.4 µM | > 100 µM |  |  |  | 
CN(C)c1ccc(/C=N/n2c(CCCCc3n[nH]c(=S)n3/N=C/c3ccc(N(C)C)cc3)n[nH]c2=S)cc1 | > 100 µM | > 100 µM | > 100 µM | > 100 µM | 66.8 µM | > 100 µM | > 100 µM | > 100 µM | > 100 µM | > 100 µM | > 100 µM | > 100 µM | > 100 µM | > 100 µM | > 100 µM | > 100 µM | > 100 µM | > 100 µM | > 100 µM | > 100 µM
Cc1ccc2c(c1)C(=O)/C(=C/c1cccc(OCC(=O)c3ccc(Cl)cc3)c1)CS2 | 13.9 µM | 33.3 µM | 16.8 µM | 34.8 µM | 13 µM | 30.6 µM | 2.64 µM | 8.02 µM | 3 µM | 11.3 µM | 1.85 µM | 4.47 µM | 15.5 µM | 46.1 µM | 2.45 µM | 8.2 µM | 2.38 µM | 6.83 µM | 4.07 µM | 18.5 µM
CC[C@H](C)[C@H](NC(=O)[C@H]1CCCCN1C)C(=O)N(C)[C@H](C[C@@H](OC(C)=O)c1nc(C(=O)NC23C4C5C2C2C3C4C52C(=O)OC)cs1)C(C)C (stereo partly specified) |  |  | 0.000768 µM | 0.00906 µM | 0.00265 µM and 0.0025 µM | > 25 µM | 0.00309 µM and 0.0025 µM | > 25 µM | 0.000557 µM and 0.0025 µM | > 25 µM | 0.00197 µM and 0.0025 µM | 7 µM | 0.00288 µM and 0.0025 µM | > 25 µM | 0.000952 µM and 0.0025 µM | > 25 µM | 0.0027 µM and 0.0025 µM | 3.33 µM | 0.0506 µM | > 25 µM

— PubChem BioAssay (NCI)
